Measured values taken from paper PMC8712301, “Novel CYP11B-ligand [^123/131I]IMAZA as promising theranostic tool for adrenocortical tumors: comprehensive preclinical characterization and first clinical experience” (European Journal of Nuclear Medicine and Molecular Imaging, 2021).

Key:
advanced ACC = test: Diagnostic imaging and biokinetics with [123I]IMTO and [123I]IMAZA in patients with advanced ACC; type: in vivo, human; design: AUC (time integral of the uptake function): concentration or dose not given beside the values
Description: Three patients (#1, #2, and #3) were investigated by [^123I]IMAZA (administered doses, 117, 163, and 182 MBq, respectively) and subsequently by [^123I]IMTO (176, 169, and 146 MBq, respectively). The time interval between the imaging studies was at least 5 days. Scintigraphic imaging was performed using a Siemens Symbia dual-head gamma camera equipped with medium-energy parallel-hole collimators. Activity concentration was measured in whole blood samples drawn at 2 min, 5 min, 15 min, 1 h, 2.5 h, 5 h, and 23 h after the administration. Plasma activity was analyzed in patient #1.

adrenal gland = test: Biodistribution in male CD-1 mice; type: in vivo; settings: for Uptake in the adrenals: i.v. 0.1 MBq
Description: Six- to 8-week old male CD-1 mice received 0.1 MBq [^125I]IMTO [17] or the ^125I-labeled IMTO-analogues as intravenous injection in the tail vein. At predefined time points, mice were sacrificed (min. n = 5 per time point). Blood and urine were collected, and several organs were excised and weighed, and tracer uptake was determined by measurement in a γ-counter.
Fig. 4 Biodistribution of [^125I]IMTO and the new compounds [^125I]IMAZA, [^125I]3, and [^125I]4 in male CD-1 mice. Mice were injected i.v. with 0.1 MBq of respective compounds. Ex vivo organ dosimetry was performed at predefined time points 15 min, 30 min, 120 min, and 240 min after tracer injection. Results are expressed as percentage of injected dose per gram organ (%ID/g). Exact numbers on uptake in the adrenal as %ID/g for the compounds are given in the supplemental data

[1] = Metabolic inactivation by human liver microsomes in vitro (radio-HPLC); type: in vitro ADME; settings: human liver microsomes, radio-HPLC
Description: Metabolic degradation was determined by co-incubation of the tracers with human liver microsomes (Sigma, M0317). Experiments were conducted in triplicates. Incubation mixtures consisted of liver microsomes (0.2 mg/ml), the respective ^125I-labeled compound (0.1 MBq), MgCl2 (3.3 mM), and NADPH (1.3 mM) in a total volume of 0.6 ml K3PO4 puffer (25 mM, pH 7.2). The reaction was started with the addition of NADPH and incubated at 37 °C. At predefined time points, aliquots were removed, and the reaction was terminated by adding 160 µL ice-cold methanol. After centrifugation (5000 × g, 4 °C for 4 min), the supernatant was analyzed by radio-HPLC (see experimental details and Supplementary Fig. 1 in Supplement).

NCI-H295 cells [2] = test: Cell uptake of 125I-labeled tracers in NCI-H295 cells, with and without etomidate; type: cell-based, human; design: Intracellular uptake with co-incubation of etomidate: dose or concentration left out as unconfirmed
Description: (§1) NCI-H295 cells (n = 250,000 per vial) were incubated with 0.1 MBq of the respective ^125I-labeled tracer at 37 °C, 5% CO2. For the blocking experiment, the cells were co-incubated with etomidate. Aliquots were taken and immediately placed into a 4 °C ice bath. After 5 min, the solution was centrifuged and rinsed twice with PBS/0.5% Tween 80, and the collected rinse solution was measured in a gamma counter. Assays were performed in triplicates. The intracellular distribution of the respective ^125I-labeled inhibitors and the specific binding to mitochondrial membranes were verified using a commercially available kit (Qiagen Qproteome Mitochondria isolation).
Fig. 3 a In vitro uptake kinetics of [^125I]IMTO, [^125I]IMAZA, [^125I]3, and [^125I]4 in NCI-H295 cells. b Cellular uptake of [^125I]IMTO, [^125I]IMAZA, [^125I]3, and [^125I]4 in NCI-H295 cells with and without co-incubation with etomidate. Cells […] (n = 3). c Cellular subfractionation of NCIH295 cells exposed to 0.1 MBq [^125I]IMTO, [^125I]IMAZA, [^125I]3, and [^125I]4 for 30 min at 37 °C. Distribution of the tracer compounds among the respective cellular subfractions

[3] = test system: human adrenocortical and non-adrenocortical tissue cryosections; test: Autoradiographic binding to human tissue cryosections
Description: Human tissues were quick frozen in liquid nitrogen to block further biological processes including protein degradation and stored at –80 °C. Frozen samples from adrenocortical carcinoma (ACC; n = 3), aldosterone-producing adenoma (APA; n = 2), and cortisol-producing adenoma (CPA; n = 2), normal adrenal, kidney, and liver were sectioned into 20-µm-thick tissue slices, thaw-mounted onto Superfrost slides (PAP PEN, Zymed® Laboratories) and stored at –80 °C until processing. For the experimental set up, the tissue slices were pre-incubated for 5 min at room temperature with buffer solution (pH 7.4, 50 mM Tris). Afterwards, the slices were directly incubated with TRIS HCl buffer solution containing 2% BSA. After 1-h blocking, slides were treated with 0.1 MBq of the different compounds. As controls, slides were incubated with 0.1 MBq of the compounds in 10 µM of the non-radioactive compound to assess binding specificity. In the following, slides were washed twice with 50 mM Tris HCl buffer solution (pH 7.4). For exposure, samples were placed on Phosphor Imager plates for 30 min in dedicated lead-shielded cassettes. Autoradiographic images were analyzed with a CR35BIO Image plate scanner, and data analysis was performed with Amide software version 0.9.0.
Fig. 5 Ex vivo imaging of normal adrenal gland, adrenocortical tumors, and control tissue (kidney, liver). Autoradiographic visualization of [^125I]IMTO and [^125I]IMAZA accumulation in the normal adrenal gland, in adrenocortical tumors (ACC, APA, CPA), kidney, and liver as control tissue (sections with 20 µm slice thickness) (representative example). […] The red circles show the position of the organs that are not shown in the imaging. A = 0.1 MBq tracer, B = 0.1 MBq tracer plus non-radioactive 10 µM inhibitor

NCI-H295 cells [4] = test: Cellular subfractionation of NCI-H295 cells exposed to 125I-labeled tracers; type: cell-based, human
Description: as §1
Fig. 3 a In vitro uptake kinetics of [^125I]IMTO, [^125I]IMAZA, [^125I]3, and [^125I]4 in NCI-H295 cells. b Cellular uptake of [^125I]IMTO, [^125I]IMAZA, [^125I]3, and [^125I]4 in NCI-H295 cells with and without co-incubation with etomidate. Cells were incubated with 0.1 MBq of the respective compounds and co-incubated with (0.1 µM, 10 µM, 100 µM) etomidate to monitor the specific uptake (n = 3). c Cellular subfractionation of NCIH295 cells exposed to 0.1 MBq [^125I]IMTO, [^125I]IMAZA, [^125I]3, and [^125I]4 for 30 min at 37 °C. Distribution of the tracer compounds among the respective cellular subfractions

metastatic ACC = test: Dosimetry and endoradiotherapy with [131I]IMAZA in a patient with metastatic ACC; type: in vivo, human
Source text: Patient #1 had experienced disease progression with a more than fourfold increase in their dominant lesions within only 4 months after a phase of disease stabilization after standard treatment with mitotane and eight courses of combination chemotherapy with etoposide, doxorubicin, and cisplatin. They received therapeutic doses with 28.2 GBq [^131I]IMAZA 1 month and with 30.5 GBq [^131I]IMAZA 7 months after the evaluation with [^123I]IMAZA. Prior to the first treatment, the absorbed dose to the blood was measured with a tracer activity of 72 MBq [^131I]IMAZA as a surrogate for the exposure of the dose-limiting organ, the red bone marrow. The absorbed dose to the blood was estimated from assessments of the activity kinetics in total body and blood up to 48 h when the mean activity concentrations had dropped to 5% of the values at 5 min after the administration in the total body and to 1% in the blood. During therapy, the total body activity retention was measured with a survey meter in the ceiling over the patient’s bed. Gamma camera whole body scans accompanied by blood sampling were acquired starting 4 days post-administration after the first and 2 days after the second therapy until dismissal. SPECT/CT imaging was performed after 4 and 5 days, respectively.
Tumor evaluation was performed by [^18F]FDG PET/CT at baseline and 2, 5, 8, 11, 14, and 21 months after administration of the first treatment dose. Subsequently, the patient declined further follow-up imaging or additional therapeutic interventions.

[5] = three patients with advanced ACC
[6] = tumor lesion: patient #1, lesion #1
[7] = tumor lesion: patient #1, lesion #2
[8] = tumor lesion: patient #2, lesion #1
[9] = tumor lesion: patient #3, lesion #1
[10] = tumor lesion: patient #3, lesion #2
[11] = patient #1, pre-therapeutic kinetics assessment with [131I]IMAZA

With `COC(=O)c1cncn1[C@H](C)c1ccc([123I])cc1` [[^123I]IMTO, [^123I]iodometomidate] the “AUC (time integral of the uptake function)” value (“AUC” below) (advanced ACC; median of five tumor lesions) was 0.0024 h/g, the effective half-live (advanced ACC; median of five tumor lesions) was 11.0 h and the uptake (advanced ACC; median of five tumor lesions) was 0.011 %/g. The “Activity concentration in plasma, times higher than in whole blood” value (advanced ACC; patient #1, hematocrit 35%) was 1.16 times, the “Residence time per liter of whole blood, times higher than for [123I]IMAZA” value (advanced ACC; [5]) was 3.6 ± 1.5 times and the “Total body residence time, times higher than for [123I]IMAZA” value (advanced ACC; [5]) was 2.2 ± 0.2 times. For the same compound, the “AUC” value (advanced ACC; [6]) was 0.0031 h/g, the effective half-live (advanced ACC; [6]) was 11.2 h and the uptake (advanced ACC; tumor lesion: patient #1, lesion #1, SPECT/CT, normalised to administered activity) was 0.015 %/g. For the same compound, the “AUC” value (advanced ACC; [7]) was 0.0024 h/g, the effective half-live (advanced ACC; [7]) was 11.0 h and the uptake (advanced ACC; tumor lesion: patient #1, lesion #2, SPECT/CT) was 0.011 %/g. For the same compound, the “AUC” value (advanced ACC; [8]) was 0.0016 h/g, the effective half-live (advanced ACC; [8]) was 12.4 h and the uptake (advanced ACC; tumor lesion: patient #2, lesion #1, SPECT/CT) was 0.006 %/g. For the same compound, the “AUC” value (advanced ACC; [9]) was 0.0017 h/g, the effective half-live (advanced ACC; [9]) was 8.0 h and the uptake (advanced ACC; tumor lesion: patient #3, lesion #1, SPECT/CT) was 0.010 %/g. The “AUC” value (advanced ACC; [10]) was 0.0056 h/g, the effective half-live (advanced ACC; [10]) was 10.1 h and the uptake (advanced ACC; tumor lesion: patient #3, lesion #2, SPECT/CT) was 0.027 %/g.
With `C[C@H](c1ccc([125I])cc1)n1cncc1C(=O)N1CCC1` [[^125I]IMAZA] the “Uptake in the non-target organs” value (adrenal gland; male CD-1 mice) was “extremely low uptake values”, the “Uptake in the adrenals” value (adrenal gland; male CD-1 mice, 15 min) was 710.9 ± 210.5 %ID/g and the “Uptake in the adrenals” value (adrenal gland; male CD-1 mice, 30 min) was 720.4 ± 169.7 %ID/g. The “Uptake in the adrenals” value (adrenal gland; male CD-1 mice, 120 min) was 395.7 ± 92.7 %ID/g, the “Uptake in the adrenals” value (adrenal gland; male CD-1 mice, 240 min) was 275.4 ± 124.1 %ID/g and the “Uptake at the latest time point, times higher compared to [125I]IMTO” value (adrenal gland; mice) was 10 times. For the same compound, the “Tracer uptake and target to background ratios compared with [125I]IMTO” value (adrenal gland; mice biodistribution) was “higher tracer uptake with better target to background ratios”, the “Metabolic stability compared with [125I]IMTO” value [1] was “more than threefold longer half-life” and the “Intracellular uptake with co-incubation of etomidate” value (NCI-H295 cells [2]; NCI-H295 cells) was 8.6%. For the same compound, the “Uptake with co-incubation of etomidate” value (NCI-H295 cells [2]; NCI-H295 cells, highest concentration 100 µM etomidate) was “almost completely blocked”, the “Intracellular uptake in NCI-H295 cells compared with [125I]IMTO” value (NCI-H295 cells [2]; at 30 min) was “highest uptake” and the “Autoradiographic signal compared with [125I]IMTO” value ([3]; human adrenocortical tissue) was “distinctively stronger”. For the same compound, the “Binding to control tissue (liver, kidney)” value ([3]; human liver n = 2, kidney n = 1) was “no binding was detected”, the “Binding to ACC, APA, and CPA tissue” value ([3]; human tissue sections 20 µm, 0.1 MBq tracer, ± 10 µM non-radioactive compound) was “very strong and specific binding” and the “Subcellular distribution compared with [125I]IMTO” value (NCI-H295 cells [4]; 30 min) was “similar”.
For `COC(=O)c1cncn1C(C)c1ccc([125I])cc1` (stereo not drawn) [[^125I]IMTO, reference compound], the “Uptake in the adrenals” value (adrenal gland; male CD-1 mice, 15 min) was 491.2 ± 170.3 %ID/g, the “Uptake in the adrenals” value (adrenal gland; male CD-1 mice, 30 min) was 321.3 ± 170.6 %ID/g and the “Uptake in the adrenals” value (adrenal gland; male CD-1 mice, 120 min) was 80.5 ± 43.7 %ID/g. For the same compound, the “Uptake in the adrenals” value (adrenal gland; male CD-1 mice, 240 min) was 27.4 ± 25.9 %ID/g, the “Intracellular uptake with co-incubation of etomidate” value (NCI-H295 cells [2]; NCI-H295 cells) was 28.2% and the “Intracellular uptake in NCI-H295 cells” value (NCI-H295 cells [2]; after 30 min, 0.1 MBq tracer, 37 °C) was 36.4%. The “Accumulation in the cytosolic fraction” value (NCI-H295 cells [4]; 0.1 MBq, 30 min at 37 °C) was 7%, the “Accumulation in the mitochondrial subfraction” value (NCI-H295 cells [4]; 0.1 MBq, 30 min at 37 °C) was 59.4% and the “Accumulation in the nuclei, cell debris subfraction” value (NCI-H295 cells [4]; 0.1 MBq, 30 min at 37 °C) was 33.6%.
For `C[C@H](c1ccc([131I])cc1)n1cncc1C(=O)N1CCC1` [[^131I]IMAZA], the “Mean blood absorbed dose” value (advanced ACC; kinetics recalculated for 131I from 123I diagnostics in patients) was 0.03 Gy/GBq, the “Long-term disease stabilization (progression-free survival)” value (metastatic ACC; patient #1, after first treatment) was 21 months and the “Survival (overall survival)” value (metastatic ACC; patient #1, after initial endoradiotherapy) was 30 months. The “Absorbed dose for both the liver and the kidney” value (metastatic ACC; patient #1, estimated) was “below 0.2 Gy/GBq”, the “Absorbed dose to the blood” value (metastatic ACC; patient #1, first therapy with 28.2 GBq) was 1.1 Gy and the “Activity giving an absorbed dose to the blood of 2 Gy” value (metastatic ACC; patient #1, pre-therapeutic kinetics assessment) was 63 GBq. The “Absorbed dose to the blood” value (metastatic ACC; [11]) was 0.032 Gy/GBq, the “Residence time in the whole blood” value (metastatic ACC; [11]) was 0.17 h per liter of whole blood and the “Residence time in the total body” value (metastatic ACC; patient #1, pre-therapeutic kinetics assessment with tracer activity) was 10.9 h.
